Measured values reported in patent US20130190404A1, “CRYSTALS OF CARBOPROST TROMETHAMINE AND THE PREPARATION METHOD AS WELL AS THE USES THEREOF” (SHANGHAI TECHWELL BIOPHARMACEUTICAL CO., LTD., priority 2010, published 2013).

Experiment: Purity and stability test: content of impurities by HPLC after sealed storage at 25° C. for 7 days
Format: physicochemical
Conditions: for Content of impurities after stored at 25° C. for 7 days: sealed storage; for Content of impurities after stored at 25° C. for 7 days / Initial content of impurities: HPLC; for Initial content of impurities: before storage (baseline of the stability test)
Description: In the following examples, high performance liquid chromatography (HPLC) method (European Pharmacopoeia) used for detecting the purity of the crystal of arboprost tromethamine obtained are listed as follows:
Stationary phase: silica gel, particle size 5-μm
Mobile phase: acetonitrile:aqueous Sodium Dihydrogen Phosphate (pH=2.5)=23:77 (V/V)
Column temperature: 35° C.
Detection wavelength: 200 nm
In the present example, the samples from the comparative-example and examples were test for purity and stability. The method for testing is described as follows:
The samples from comparative-example 1, example 2 and example 4 were obtained and kept at 25° C. for 7 days in sealed storage. And then the content of impurities in each sample was tested.

Content of impurities after stored at 25° C. for 7 days	Initial content of impurities	stability after storage (in words) (after stored for a long time, conclusion from the table)	Structure (SMILES)
0.3%	0.3%	–	CCCCC[C@](C)(O)/C=C/[C@@H]1[C@@H](C/C=C\CCCC(=O)O)[C@@H](O)C[C@H]1O [Example 2, carboprost tromethamine]
0.2%	0.2%	–	CCCCC[C@](C)(O)/C=C/[C@@H]1[C@@H](C/C=C\CCCC(=O)O)[C@@H](O)C[C@H]1O [Example 4, carboprost tromethamine]
4.0%	0.5%	–	CCCCC[C@](C)(O)/C=C/[C@@H]1[C@@H](C/C=C\CCCC(=O)O)[C@@H](O)C[C@H]1O [compound 1, carboprost tromethamine]
–	–	excellent stability	CCCCC[C@](C)(O)/C=C/[C@@H]1[C@@H](C/C=C\CCCC(=O)O)[C@@H](O)C[C@H]1O [crystal of carboprost tromethamine, 2-amino-2-(hydroxymethyl)propan-1,3-diol(5Z)-7-[(1R,2R,3R,5S)-3,5-dihydroxy-2-[(1E,3S)-3-hydroxy-3-methyl-1-octene]cyclopentyl]-5-heptylic acid]
